Assay results as given in patent publication US20160199367A1, “Composition for the prevention or treatment of the symptoms in the stroke comprising the inhibitor of Pin1” (RESEARCH & BUSINESS FOUNDATION SUNGKYUNKWAN UNIVERSITY, priority 2015, published 2016).

Experiments:
NICD1 protein [1] = assay: NICD1 protein expression by western blotting in SH-SY5Y cells; type: cell-based, human; settings: 5 μM, treated in combination after overexpression of Pin1, SH-SY5Y, FIG. 1B
Procedure: In Examples according to the present invention, a human neuroblastoma cell line, SH-SY5Y, and a mouse embryonic fibroblast cell line, an MEF cell, were used. All of the cells were cultured in DMEM (Sigma) media containing 10% fetal bovine serum (Gibco, Welgene, Hyclone) and 1% penicillin/streptomycin.
(§1) A sample was prepared by isolating a protein from cells, and analyzed by 10% sodium dodecyl sulfate (SDS)-polyacrylamide gel electrophoresis using Tris-glycine running buffer. The gel was removed after the electrophoresis, and a transferring process was performed using a transfer buffer containing 0.025 mol/L Tris base, 0.15 mol/L glycine, and 10% (v/v) methanol at 15 V for 1.5 hours to transfer proteins onto a nitrocellulose membrane along an electrical flow. The protein-binding membrane was immersed in blocking buffer (5% non-fat milk in 20 mM Tris-HCl, pH 7.5, 137 mM NaCl, 0.2% Tween-20), and reacted at room temperature for 1 hour. […]
First, to verify the correlation between the Notch1 signaling activity and Pin1, Pin1 protein was overexpressed with Pin1 cDNA in a human neuroblastoma cell line, SH-SY5Y, and a change in expression of a Notch1 signaling-activation molecule, NICD1 protein, was analyzed by western blotting (WB). […]

SH-SY5Y cells = assay: Apoptosis of SH-SY5Y cells under GD or OGD by trypan blue staining; type: cell-based, human; settings: OGD or GD condition for 6 hours or 12 hours, juglone 1.5 μM, PiB 5 μM, DTM 5 μM, FIGS. 5A to 5D
Procedure: By the method as described in Example 4, SH-SY5Y cells were exposed to OGD or GD conditions to induce apoptosis, and Pin1 inhibitors including juglone were treated to verify a neuroprotective effect.
SH-SY5Y cells were treated with Pin1 inhibitors such as 5-hydroxy-1,4-naphthoquinone (juglone), diethyl-1,3,6,8-tetrahydro-1,3,6,8-tetraoxobenzo phenanthroline-2,7-diacetate (PiB), and dipentamethylene thiuram monosulfide (DTM) at a concentration each of 1.5, 5 or 5 μM, and exposed to a GD or OGD condition for 6 hours or 12 hours to induce apoptosis, and then stained with trypan blue (0.4%) to quantify a degree of apoptosis.

NICD1 ubiquitination = NICD1 ubiquitination by co-immunoprecipitation and western blotting in Pin1-overexpressing SH-SY5Y cells; type: cell-based, human; settings: 1.5 μM, Pin1-overexpressing SH-SY5Y treated with MG132, FIG. 3A
Description: MYC-tagged NICD1, HA-tagged ubiquitin (Ub), and Pin1 were expressed in SH-SY5Y cell lines, and treated with MG132 to inhibit a proteolytic activity of a 26S proteasome complex. Afterward, HA and FBW7-specific antibodies were used to analyze a degree of NICD1 ubiquitination by co-immunoprecipitation (IP) and western blotting (WB).

Pin1 protein [2] = assay: Pin1 protein expression in primary neuronal cells in ischemic stroke-like environment (immunocytochemistry, western blotting); type: cell-based; settings: OGD or GD condition, FIGS. 4A and 4B
Procedure: (§8) Primary neuronal cells were cultured in a glucose and serum-free medium in a 5% or 1% oxygen incubator for 9, 12 and 24 hours to create an ischemic stroke-like environment on a cellular level, thereby inducing the neuronal cell death. Afterward, an expression level of the Pin1 protein was analyzed by immunocytochemistry and western blotting.
(§9) In addition, after the neuronal cells were cultured under the OGD condition for 12 hours, the induction of the neuronal cell death was detected by trypan blue (0.4%) staining, which is shown in FIG. 4C.

[3] = test system: cleaved caspase-3 (CLCas-3) protein; assay: Cleaved caspase-3 expression in primary neuronal cells under GD or OGD by western blotting; type: cell-based; settings: GD or OGD condition for 12 hours or 24 hours, FIGS. 4D and 4E
Procedure: as §1, with “hour. Afterward, the membrane was reacted overnight with primary antibodies, such as Pin1 (R&D, Epitomics), NICD1 (Upstate), MYC (Roche), FBW7 (Bioss), or Actin (Sigma), which specifically bound to each protein whose expression level was to be confirmed, at 4° C. The next day, the membrane was washed with Tris-buffered saline-T (20 mM Tris-HCL, pH 7.5, 137 mM NaCl, 0.2% Tween-20) three times each for 10 minutes.” for “hour.”
(§2) Subsequently, primary neuronal cells were cultured under a GD or OGD condition for 12 hours or 24 hours, and then changes in expressions of caspase-3, which is one of the apoptosis signal proteins, and NICD1 protein were analyzed by western blotting.

NICD1 protein [4] = assay: NICD1 expression in primary neuronal cells under GD or OGD by western blotting; type: cell-based; settings: GD or OGD condition, FIGS. 4F and 4G
Procedure: as §1, with “hour. Afterward, the membrane was reacted overnight with primary antibodies, such as Pin1 (R&D, Epitomics), NICD1 (Upstate), MYC (Roche), FBW7 (Bioss), or Actin (Sigma), which specifically bound to each protein whose expression level was to be confirmed, at 4° C. The next day, the membrane was washed with Tris-buffered saline-T (20 mM Tris-HCL, pH 7.5, 137 mM NaCl, 0.2% Tween-20) three times each for 10 minutes.” for “hour.”
as §2

[5] = test system: middle cerebral artery occlusion (MCAO) animal model; assay: Stroke inhibitory effect in MCAO animal model, administration before MCAO operation; type: in vivo; settings: mouse, 3 mg/kg intraperitoneally twice before MCAO operation, compared to control group
Description: (§3) A mouse was anesthetized and an epidermis around the neck was incised. The left common carotid artery linked to the left hemisphere was ligated with a surgical suture, and then the external carotid artery was incised to insert a filament thereinto. The filament was pushed into the middle cerebral artery through the internal carotid artery to locally clog the middle cerebral artery, thereby interrupting blood supply to construct an ischemic animal model. After cerebral infarction was induced in the animal model for 1 hour, the filament was removed from the blood vessel (artery), and then the blood was supplied again to the blood vessel, followed by suturing.
Ischemic stroke was trigged in the mouse by intraperitoneally administering the juglone (3 mg/kg) twice and conducting an MCAO operation, and then the resultant mouse was compared with a control group mouse to which the juglone was not administered.

NICD1 protein [6] = assay: NICD1 expression in left hemisphere of MCAO mouse, administration before MCAO (western blotting); type: in vivo; settings: 3 mg/kg intraperitoneally twice before MCAO, compared to control group, FIGS. 7C and 7D
Procedure: (§4) A sample was prepared by isolating a protein from cells, and analyzed by 10% sodium dodecyl sulfate (SDS)-polyacrylamide gel electrophoresis using Tris-glycine running buffer. The gel was removed after the electrophoresis, and a transferring process was performed using a transfer buffer containing 0.025 mol/L Tris base, 0.15 mol/L glycine, and 10% (v/v) methanol at 15 V for 1.5 hours to transfer proteins onto a nitrocellulose membrane along an electrical flow. The protein-binding membrane was immersed in blocking buffer (5% non-fat milk in 20 mM Tris-HCl, pH 7.5, 137 mM NaCl, 0.2% Tween-20), and reacted at room temperature for 1 hour. […] The next day, the membrane was washed with Tris-buffered saline-T (20 mM Tris-HCL, pH 7.5, 137 mM NaCl, 0.2% Tween-20) three times each for 10 minutes. In addition, the membrane was reacted with secondary antibodies at room temperature for 1 hour, washed again three times, and then scanned using an Odyssey® Infrared Imaging System (LI-COR Biosciences) or ECL-plus system to analyze the expression level of each protein.
(§5) A mouse was anesthetized and an epidermis around the neck was incised. […]
(§6) In addition, the left hemisphere of the stroke-triggered mouse was analyzed by western blotting to compare the expressions of NICD1, Pin1 and FBW7 proteins.

Pin1 protein [7] = assay: Pin1 expression in left hemisphere of MCAO mouse, administration before MCAO (western blotting); type: in vivo; settings: 3 mg/kg intraperitoneally twice before MCAO, compared to control group, FIGS. 7C and 7D
Procedure: as §4, §5, §6

FBW7 protein [8] = assay: FBW7 expression in left hemisphere of MCAO mouse, administration before MCAO (western blotting); type: in vivo; settings: 3 mg/kg intraperitoneally twice before MCAO, compared to control group, FIGS. 7C and 7D
Procedure: as §4, §5, §6

[9] = test system: middle cerebral artery occlusion (MCAO) animal model; assay: Neuroprotective effect in MCAO animal model, administration after triggering of ischemic stroke; type: in vivo; settings: mouse, 3 mg/kg once by intravenous injection after MCAO operation, compared to control group
Description: as §3
An MCAO operation was conducted on a mouse as described in Example 1-4 to trigger ischemic stroke, and then juglone (3 mg/kg) was administered once to the mouse by intravenous injection. Afterward, the resultant mouse was compared with the control group mouse to which the juglone was not administered.

NICD1 protein [10] = assay: NICD1 expression in MCAO mouse brain, administration after stroke (western blotting); type: in vivo; settings: 3 mg/kg once by intravenous injection after MCAO, compared to control group, FIGS. 8C and 8D
Procedure: as §4
(§7) A mouse was anesthetized and an epidermis around the neck was incised. The left common carotid artery linked to the left hemisphere was ligated with a surgical suture, and then the external carotid artery was incised to insert a filament thereinto. […]

Pin1 protein [11] = assay: Pin1 expression in MCAO mouse brain, administration after stroke (western blotting); type: in vivo; settings: 3 mg/kg once by intravenous injection after MCAO, compared to control group, FIGS. 8C and 8D
Procedure: as §4, §7

FBW7 protein [12] = assay: FBW7 expression in MCAO mouse brain, administration after stroke (western blotting); type: in vivo; settings: 3 mg/kg once by intravenous injection after MCAO, compared to control group, FIGS. 8C and 8D
Procedure: as §4, §7

primary neuronal cells = assay: Neuronal cell death under OGD condition by trypan blue staining; settings: OGD condition for 12 hours, FIG. 4C
Procedure: as §8, §9

## C[C@H](NC(=O)Cc1cc(F)cc(F)c1)C(=O)N[C@H](C(=O)OC(C)(C)C)c1ccccc1 [DAPT, N-[N-(3,5-difluorophenacetyl)-1-alanyl]-S-phenylglycine t-butyl ester]
NICD1 protein [1]
  expression of NICD1 protein: increase in NICD1 was not found

## S=C(SC(=S)N1CCCCC1)N1CCCCC1 [DTM, dipentamethylene thiuram monosulfide]
SH-SY5Y cells
  apoptosis (trypan blue): decreased to a greater or less extent

## CCOC(=O)CN1C(=O)c2ccc3c4c(ccc(c24)C1=O)C(=O)N(CC(=O)OCC)C3=O [PiB, diethyl-1,3,6,8-tetrahydro-1,3,6,8-tetraoxobenzo phenanthroline-2,7-diacetate]
SH-SY5Y cells
  apoptosis (trypan blue): decreased to a greater or less extent

## O=C1C=CC(=O)c2c(O)cccc21 [juglone, 5-hydroxy-1,4-naphthoquinone]
NICD1 ubiquitination
  NICD1 ubiquitination: increased again
Pin1 protein [2]
  Pin1 expression: reduced
[3]
  expression of cleaved caspase-3 (CLCas-3) protein: decreased
NICD1 protein [4]
  expression of NICD1 protein: decreased
SH-SY5Y cells
  apoptosis (trypan blue): decreased to a greater or less extent
[5]; FIG. 7A
  generation of ischemia: decreased
[5]; FIG. 7B
  neurological deficits: decreased
NICD1 protein [6]
  expression of NICD1 protein: decreased
Pin1 protein [7]
  expression of Pin1 protein: decreased
FBW7 protein [8]
  expression of FBW7 protein: increased
[9]; FIG. 8A
  generation of ischemia: decreased
[9]; FIG. 8B
  neurological deficits: decreased
NICD1 protein [10]
  expression of NICD1 protein: decreased
Pin1 protein [11]
  expression of Pin1 protein: decreased
FBW7 protein [12]
  expression of FBW7 protein: increased
Primary neuronal cells
  apoptosis (neuronal cell death, trypan blue): reduced
